From US4060608A, “Substituted hydroxymethyl benzodiazepines” (DDSA Pharmaceuticals, priority 1975, dated 1977)
Counter-ions that a name gives are not always drawn.

Tests used:
Type in all cases: in vivo
mice [1] = test: observation of sedation/tranquillization and hypnotic state in the mice of the Rotarod test
From the text: (§1) In humans, this retention of coordination would avoid or reduce the disadvantages of loss of concentration and related side effects commonly associated with benzodiazepine drugs. The observation of this effect was made on groups of five mice subjected to a Rotarod test.
*2/5 mice in hypnotic state - not returned to rotarod.

[2] = 7-day median lethal dose (LD50) in female mice; conditions: mouse, in vivo, 7-day
From the text: (§2) The compounds in which R4 is furyl are of particular interest. Their psychotropic action is as disclosed above, but in addition their toxicity tends to be low. […] The higher toxicity at lower temperatures was thought to be caused by […] induced by the compound under test.

female mice = test: 7-day median lethal dose (LD50) in female mice
From the text: as §2

[3] = diuretic activity at sedating dose; conditions: dose levels producing sedation (200 mg/Kg)
From the text: At a clinical dose level it can therefore be assumed that there would be no diuretic effect.

mice [4] = test: Rotarod test (neuro-muscular coordination), groups of 5 mice, 2 minute test periods for 5 hours after dosage
From the text: as §1

## CN(C1=Nc2ccc(Cl)cc2C(c2ccccc2)=[N+]([O-])C1)C(O)c1ccco1 (stereo not shown) [SH60, 7-chloro-2-(N-methyl-N-1-hydroxyfurfurylamino)-5-phenyl-3H-1,4-benzodiazepine-4-oxide hydrochloride]
Mice [1]; 200 mg./kg., footnote to 180, 240 and 300 mins. after dosage
  mice in hypnotic state - not returned to rotarod: 2/5
Mice [1]; mice, 20 mg/Kg
  sedation/tranquillization: apparent sedation/tranquillization
Mice [1]; mice, 100 mg/Kg
  sedation/tranquillization: apparent sedation/tranquillization
Mice [1]; mice, 200 mg/Kg, after 30 minutes
  sedation: marked sedation
[2]; at 23° C
  LD50 at 168 h: 900 mg/kg
[2]; at 30° C
  LD50 at 168 h: 1080 mg/kg
Female mice
  toxicity, indicated by the LD50, compared with conventional and commercially used benzodiazepine drugs: significantly lower than that of conventional and commercially used benzodiazepine drugs
[3]
  diuretic activity: minimal diuretic activity
Mice [4]; 20 mg./kg., 0 mins. after dosage, 5 mice
  Total Number of Falls: 2
Mice [4]; 20 mg./kg., 15 mins. after dosage, 5 mice
  Total Number of Falls: 0
Mice [4]; 20 mg./kg., 30 mins. after dosage, 5 mice
  Total Number of Falls: 0
Mice [4]; 20 mg./kg., 45 mins. after dosage, 5 mice
  Total Number of Falls: 0
Mice [4]; 20 mg./kg., 60 mins. after dosage, 5 mice
  Total Number of Falls: 0
Mice [4]; 20 mg./kg., 90 mins. after dosage, 5 mice
  Total Number of Falls: 0
Mice [4]; 20 mg./kg., 120 mins. after dosage, 5 mice
  Total Number of Falls: 0
Mice [4]; 20 mg./kg., 180 mins. after dosage, 5 mice
  Total Number of Falls: 0
Mice [4]; 20 mg./kg., 240 mins. after dosage, 5 mice
  Total Number of Falls: 0
Mice [4]; 20 mg./kg., 300 mins. after dosage, 5 mice
  Total Number of Falls: 0
Mice [4]; 100 mg./kg., 0 mins. after dosage, 5 mice
  Total Number of Falls: 2
Mice [4]; 100 mg./kg., 15 mins. after dosage, 5 mice
  Total Number of Falls: 0
Mice [4]; 100 mg./kg., 30 mins. after dosage, 5 mice
  Total Number of Falls: 0
Mice [4]; 100 mg./kg., 45 mins. after dosage, 5 mice
  Total Number of Falls: 0
Mice [4]; 100 mg./kg., 60 mins. after dosage, 5 mice
  Total Number of Falls: 0
Mice [4]; 100 mg./kg., 90 mins. after dosage, 5 mice
  Total Number of Falls: 0
Mice [4]; 100 mg./kg., 120 mins. after dosage, 5 mice
  Total Number of Falls: 0
Mice [4]; 100 mg./kg., 180 mins. after dosage, 5 mice
  Total Number of Falls: 0
Mice [4]; 100 mg./kg., 240 mins. after dosage, 5 mice
  Total Number of Falls: 0
Mice [4]; 100 mg./kg., 300 mins. after dosage, 5 mice
  Total Number of Falls: 0
Mice [4]; 200 mg./kg., 0 mins. after dosage, 5 mice
  Total Number of Falls: 0
Mice [4]; 200 mg./kg., 15 mins. after dosage, 5 mice
  Total Number of Falls: 0
Mice [4]; 200 mg./kg., 30 mins. after dosage, 5 mice
  Total Number of Falls: 23
Mice [4]; 200 mg./kg., 45 mins. after dosage, 5 mice
  Total Number of Falls: 27
Mice [4]; 200 mg./kg., 60 mins. after dosage, 5 mice
  Total Number of Falls: 36
Mice [4]; 200 mg./kg., 90 mins. after dosage, 5 mice
  Total Number of Falls: 34
Mice [4]; 200 mg./kg., 120 mins. after dosage, 5 mice
  Total Number of Falls: 40
Mice [4]; 200 mg./kg., 180 mins. after dosage, 2/5 mice in hypnotic state - not returned to rotarod
  Total Number of Falls: ≥ 26
Mice [4]; 200 mg./kg., 240 mins. after dosage, 2/5 mice in hypnotic state - not returned to rotarod
  Total Number of Falls: ≥ 37
Mice [4]; 200 mg./kg., 300 mins. after dosage, 2/5 mice in hypnotic state - not returned to rotarod
  Total Number of Falls: ≥ 30
Mice [4]; mice, 20 mg/Kg
  effect on muscular coordination: no apparent effect on muscular coordination
Mice [4]; mice, 100 mg/Kg
  effect on muscular coordination: no apparent effect on muscular coordination
Mice [4]; mice, 200 mg/Kg
  difficulty in maintaining balance on the rotating rod: all animals showed difficulty in maintaining balance on the rotating rod
Mice [4]; mice, dose levels producing tranquilizing and sedative effects
  neuro-muscular coordination: normal neuro-muscular coordination

## CN(C)CCCN1c2ccccc2Sc2ccc(Cl)cc21 [Chlorpromazine, reference compound]
Mice [4]; 15 mg./kg., 0 mins. after dosage, 5 mice
  Total Number of Falls: 0
Mice [4]; 15 mg./kg., 15 mins. after dosage, 5 mice
  Total Number of Falls: 1
Mice [4]; 15 mg./kg., 30 mins. after dosage, 5 mice
  Total Number of Falls: 0
Mice [4]; 15 mg./kg., 45 mins. after dosage, 5 mice
  Total Number of Falls: 5
Mice [4]; 15 mg./kg., 60 mins. after dosage, 5 mice
  Total Number of Falls: 13
Mice [4]; 15 mg./kg., 90 mins. after dosage, 5 mice
  Total Number of Falls: 17
Mice [4]; 15 mg./kg., 120 mins. after dosage, 5 mice
  Total Number of Falls: 14
Mice [4]; 15 mg./kg., 180 mins. after dosage, 5 mice
  Total Number of Falls: 9
Mice [4]; 15 mg./kg., 240 mins. after dosage, 5 mice
  Total Number of Falls: 13
Mice [4]; 15 mg./kg., 300 mins. after dosage, 5 mice
  Total Number of Falls: 9
